The values that follow come from patent US20060134068A1, “Treatment of cancer by simultaneous inhibiton of BRAF and restoration or mimicry of p16INK4A activity” (Mount Sinai School of Medicine of New York University, priority 2004, published 2006).

The subject of assay [1] is mBRAF positive melanoma cells. Particulars: mice, Collisson et al. 2003; cited from earlier work.
Assay [2] relates to 624Mel, WM35, A375, and Mel1363 cells. Put plainly: Preliminary chemotherapeutic treatment, daily cell counting and colony formation. It is filed as cell-based. Particulars: after 6-24 hr treatment, both concentrations.
Assay [3] relates to untreated, advanced, melanoma. Particulars: 17 patients, treatment for a median of about 3 months; cited from earlier work.
A further assay addresses CDK4 (Homo sapiens, UniProt P11802). The following applies: Kubo et al. 1999; cited from earlier work.

Sequence of CDK4 (P11802 whole entry, species assumed): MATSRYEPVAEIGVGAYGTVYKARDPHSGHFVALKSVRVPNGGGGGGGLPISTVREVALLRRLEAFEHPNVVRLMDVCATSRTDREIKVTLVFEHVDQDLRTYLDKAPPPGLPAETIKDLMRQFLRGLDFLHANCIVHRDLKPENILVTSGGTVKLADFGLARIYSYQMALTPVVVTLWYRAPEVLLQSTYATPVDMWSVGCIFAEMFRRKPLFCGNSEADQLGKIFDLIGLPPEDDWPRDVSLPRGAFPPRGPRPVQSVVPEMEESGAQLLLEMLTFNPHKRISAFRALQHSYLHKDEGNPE
Sequence of CDK4 (P24385 whole entry partner, species assumed): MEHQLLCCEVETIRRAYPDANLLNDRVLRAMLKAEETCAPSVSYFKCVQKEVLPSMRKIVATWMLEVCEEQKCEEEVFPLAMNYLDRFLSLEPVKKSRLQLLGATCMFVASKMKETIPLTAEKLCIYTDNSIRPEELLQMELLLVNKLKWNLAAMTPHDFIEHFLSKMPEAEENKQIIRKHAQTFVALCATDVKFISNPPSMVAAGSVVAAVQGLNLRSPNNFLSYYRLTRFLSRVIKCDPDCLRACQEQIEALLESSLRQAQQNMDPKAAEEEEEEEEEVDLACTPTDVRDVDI

On to `O=C(NOCC1CC1)c1ccc(F)c(F)c1Nc1ccc(I)cc1Cl` [CI 1040], for which the pulmonary metastases entry in assay [1] is “suppressed”.

In the case of `N.N.[Cl][Pt][Cl]` [cisplatin], the growth inhibition entry in assay [2] is “Growth inhibition was observed”.

`CN1CC[C@H](c2c(O)cc(O)c3c(=O)cc(-c4ccccc4Cl)oc23)[C@H](O)C1` [flavopiridol]: the clinical response entry in assay [3] is reported as “no response”. In addition, the “inhibition of CDK4 activity, rank among the compounds” value on CDK4 is listed as “most potent inhibitor”.

Consider `CC(=O)O[C@H]1C(=O)[C@@]2(C)[C@H]([C@H](OC(=O)c3ccccc3)[C@]3(O)C[C@H](OC(=O)[C@H](O)[C@@H](NC(=O)c4ccccc4)c4ccccc4)C(C)=C1C3(C)C)[C@]1(OC(C)=O)CO[C@@H]1C[C@@H]2O` [taxol], for which the growth inhibition result in assay [2] is on record as “Growth inhibition was observed”.
